Experimental data as given in patent publication US10280139B2, “Cytotoxic peptides and conjugates thereof” (priority 2014, dated 2019).

Tests used:
Assay in all cases: In vitro cell killing assay of compounds of Formula (I), Cell-Titer-Glo
Assay type in all cases: cell-based
CMK11-5 cells = conditions: Homo sapiens, CMK-11-5, 120 h; free compound, five days incubation
Procedure: (§1) For evaluation of the cell killing potency of the compounds of Formula (I) in vitro, cell proliferation assays were performed in parallel with 8 cell lines: MDA-MB231 clone 16, clone 40, JimT1, HCC1954, NCl-H526, KU812, CMK11-5 cells and Jurkat cells. […] The cell proliferation assays were conducted with Cell-Titer-Glo™ (Promega) five days after cells were incubated with various concentrations of the compound (Riss et al., (2004) Assay Drug Dev Technol. 2:51-62).

HCC1954 = conditions: Homo sapiens, HCC1954, 120 h; free compound, five days incubation
Procedure: as §1

JimT1 = conditions: Homo sapiens, JIMT-1, 120 h; free compound, five days incubation
Procedure: as §1

Jurkat cells = conditions: Homo sapiens, 120 h, free compound, five days incubation
Procedure: as §1

KU812 = conditions: Homo sapiens, KU812, 120 h; free compound, five days incubation
Procedure: as §1

MDA-MB231 clone 16 = conditions: Homo sapiens, MDA-MB-231, 120 h; free compound, five days incubation
Procedure: as §1

MDA-MB231 clone 40 = conditions: Homo sapiens, MDA-MB-231, 120 h; free compound, five days incubation
Procedure: as §1

NCI-H526 = conditions: Homo sapiens, NCI-H526, 120 h; free compound, five days incubation
Procedure: as §1

**Q.** Which results are given for `CC[C@H](C)[C@@H]([C@@H](CC(=O)N1CCC[C@H]1[C@H](OC)[C@@H](C)C(=O)N[C@@H](Cc1ccccc1)C(=O)O)OC)N(C)C(=O)[C@@H](/N=C(\N(C)C)N(C)CCN(C)C(=O)CCCCCN1C(=O)C=CC1=O)C(C)C` [NL-9, (S)-2-((2R,3R)-3-((S)-1-((3R,4S,7S,E)-4-((S)-sec-butyl)-9-(dimethylamino)-19-(2,5-dioxo-2,5-dihydro-1H-pyrrol-1-yl)-7-isopropyl-3-methoxy-5,10,13-trimethyl-6,14-dioxo-5,8,10,13-tetraazanonadec-8-en-1-oyl)pyrrolidin-2-yl)-3-methoxy-2-methylpropanamido)-3-phenylpropanoic acid]?
**A.** IC50 (CMK11-5 cells): 10.4 nM; IC50 (HCC1954): 2.3 nM; IC50 (JimT1): 14.2 nM; IC50 (Jurkat cells): 6.1 nM; IC50 (KU812): 8.4 nM; IC50 (MDA-MB231 clone 16): 8.1 nM; IC50 (MDA-MB231 clone 40): 11.7 nM; IC50 (NCI-H526): 29.5 nM

**Q.** For `CC[C@H](C)[C@@H]([C@@H](CC(=O)N1CCC[C@H]1[C@H](OC)[C@@H](C)C(=O)N[C@@H](Cc1ccccc1)C(=O)NS(=O)(=O)CCCN=[N+]=[N-])OC)N(C)C(=O)[C@@H](N=C(N(C)C)N(C)C)C(C)C` [FP-3, (S)-2-((bis(dimethylamino)methylene)amino)-1-(((3R,4S,5S)-1-((S)-2-((1R,2R)-3-(((S)-N-1-(3-azidopropylsulfonamido)-1-oxo-3-phenylpropan-2-yl)amino)-1-methoxy-2-methyl-3-oxopropyl)pyrrolidin-1-yl)-3-methoxy-5-methyl-1-oxoheptan-4-yl)(methyl)amino)-3-methyl-1-oxobutane], which IC50 (CMK11-5 cells) is on record?
**A.** 14.7 nM

**Q.** And the IC50 (HCC1954)?
**A.** 10.8 nM

**Q.** And the IC50 (JimT1)?
**A.** 42.1 nM

**Q.** What about the IC50 (Jurkat cells) of the same molecule?
**A.** 3.01 nM

**Q.** What about the IC50 (KU812) of the same molecule?
**A.** 6.78 nM

**Q.** What about the IC50 (MDA-MB231 clone 16) of the same molecule?
**A.** 12.7 nM

**Q.** What about the IC50 (MDA-MB231 clone 40) of the same molecule?
**A.** 23.9 nM

**Q.** And the IC50 (NCI-H526)?
**A.** 22 nM

**Q.** How did the IC50 (CMK11-5 cells) turn out when `CC[C@H](C)[C@@H]([C@@H](CC(=O)N1CCC[C@H]1[C@H](OC)[C@@H](C)C(=O)N[C@@H](Cc1ccccc1)C(=O)OC)OC)N(C)C(=O)[C@@H](NC(=O)N(C(C)C)C(C)C)C(C)C` [FP-5, (S)-methyl-2-((2R,3R)-3-((S)-1-((3R,4S,5S)-4-((S)-2-(3,3-diisopropylureido)-N,3-dimethylbutanamido)-3-methoxy-5-methylheptanoyl)pyrrolidin-2-yl)-3-methoxy-2-methylpropanamido)-3-phenylpropanoate] was run?
**A.** 74.8 nM

**Q.** What about the IC50 (HCC1954) of the same molecule?
**A.** 47 nM

**Q.** What about the IC50 (JimT1) of the same molecule?
**A.** 44.7 nM

**Q.** And the IC50 (Jurkat cells)?
**A.** 49.9 nM

**Q.** What about the IC50 (KU812) of the same molecule?
**A.** 106 nM

**Q.** And the IC50 (MDA-MB231 clone 16)?
**A.** 83.5 nM

**Q.** And the IC50 (MDA-MB231 clone 40)?
**A.** 139 nM

**Q.** And the IC50 (NCI-H526)?
**A.** 204 nM
